Test results published in PubChem BioAssay (NCI).
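48-hour exposure; five concentrations; linearly interpolated endpoints. The concentration for full growth arrest is given as TGI.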

Test system: OVCAR-8 ovarian
Assay: NCI-60 cell line screen, 48 h

Compound | TGI [µM]
CC(=O)OC1C=C(C=O)C(O)(C=O)C2(C)CCCC(C)(C)C12 (configuration not stated) | 4.6
COc1cc2c(/C=C3/C(=O)Nc4ccc(O)cc43)c(Cl)n(Cc3ccccc3)c2cc1C | 12.2
CC(C)=CCc1c(O)cc(O)c2c1OC(c1ccc(O)cc1)C(O)C2=O (configuration not stated) | > 100
Cc1ccc(-c2c(C#N)c(-c3ccccc3)n(NS(=O)(=O)c3ccc(C)cc3)c(=O)c2C#N)cc1 | > 100
CC(C)CCCC(C)[C@H]1CC[C@H]2n3c(nnc3-c3ccccc3)CCC[C@]12C (some centres not stated) | 67.2
CCCCCCCCCCCCCCCCP(=O)(O)OCC(N)C(=O)O (configuration not stated) | > 100
C1=C(CC2=C[P+](c3ccccc3)(c3ccccc3)C=C(c3ccccc3)O2)OC(c2ccccc2)=C[P+]1(c1ccccc1)c1ccccc1 | 0.69
OC1=C2c3ccccc3NC2Oc2cc(F)ccc21 (configuration not stated) | > 100
NCC(Cl)C(O)c1cnc(N)[nH]1 (configuration not stated) | 15.5

Test system: UO-31 renal
Assay: NCI-60 cell line screen, 48 h

Compound | TGI [µM]
CCOc1cccc(C=Nc2ccccc2SSc2ccccc2N=Cc2cccc(OCC)c2O)c1O | 26.6
Cc1c2c(cc3c1C(=O)C(=O)C([C@@H](C)CO)=C3O)C(C)(C)CCC2 | 38.6
CC[C@@]1(O)C(=O)OCc2c1cc1n(c2=O)Cc2c-1nc1ccccc1c2/C=N\NC(=O)C[n+]1ccccc1 | 2.56
Cc1[nH]c(=O)[nH]c(=O)c1/C=C/C(=O)NC(CO)CC(C)C (configuration not stated) | > 375
COc1ccc(CC2Cc3ccccc3CCN2)cc1OC (configuration not stated) | > 50
CN(C)CCn1c(=O)c2ccc(NCCNCCO)c3c(=O)c4ccccc4n(c1=O)c23 | 0.842
O=C1CC(Br)c2c(Br)sc(Br)c21 (configuration not stated) | 34.7
[O-][n+]1nc(N2CCOCC2)nc2ccccc21 | > 100
COc1ccc(NC(=S)Nc2cc(C)ccn2)cc1 | > 100
N=C1C(=N)c2ccccc2-c2ccccc21.[Cl-].[Ru+2].c1cnc2c(c1)ccc1cccnc12.c1cnc2c(c1)ccc1cccnc12 | > 100
NCc1ccc(-c2ccc(CN)s2)s1 | > 100
Cc1cccc(N/C(=C(/C(Cl)=C(Cl)Cl)[N+](=O)[O-])n2nnc3ccccc32)c1 | 31
CCC1CN2CCc3cc(OC)c(OC)cc3C2CC1CC1c2cc(OC)c(OC)cc2CCN1C(=O)C(N)Cc1ccccc1 (configuration not stated) | 5.85
CC(=O)OC1C=C(C=O)C(O)(C=O)C2(C)CCCC(C)(C)C12 (configuration not stated) | 5.66
C1C2CC3CC1CC(c1nn4c(C56CC7CC(CC(C7)C5)C6)nnc4s1)(C2)C3 | > 100
Cc1cn(C2OC(CO[Si](C)(C)C(C)(C)C)/C(=C\C#N)C2O[Si](C)(C)C(C)(C)C)c(=O)[nH]c1=O (configuration not stated) | > 100
COc1cc2c(/C=C3/C(=O)Nc4ccc(O)cc43)c(Cl)n(Cc3ccccc3)c2cc1C | > 100
O=[N+]([O-])/C(C(Cl)=C(Cl)Cl)=C1\Nc2ccc([N+](=O)[O-])cc2N1 | 27.5
CC(C)=CCc1c(O)cc(O)c2c1OC(c1ccc(O)cc1)C(O)C2=O (configuration not stated) | 90.4
CC(C)CCCC(C)[C@H]1CC[C@H]2n3c(nnc3-c3ccccc3)CCC[C@]12C (some centres not stated) | 23.2
CCCCCCCCCCCCCCCCP(=O)(O)OCC(N)C(=O)O (configuration not stated) | 31.7
C1=C(CC2=C[P+](c3ccccc3)(c3ccccc3)C=C(c3ccccc3)O2)OC(c2ccccc2)=C[P+]1(c1ccccc1)c1ccccc1 | 2.94
OC1=C2c3ccccc3NC2Oc2cc(F)ccc21 (configuration not stated) | 28.2
NCC(Cl)C(O)c1cnc(N)[nH]1 (configuration not stated) | 6.38

Test system: HCT-116 colon
Assay: NCI-60 cell line screen, 48 h

Compound | TGI [µM]
CCOc1cccc(C=Nc2ccccc2SSc2ccccc2N=Cc2cccc(OCC)c2O)c1O | 11.2
Cc1c2c(cc3c1C(=O)C(=O)C([C@@H](C)CO)=C3O)C(C)(C)CCC2 | 93.1
CC[C@@]1(O)C(=O)OCc2c1cc1n(c2=O)Cc2c-1nc1ccccc1c2/C=N\NC(=O)C[n+]1ccccc1 | > 38.1
Cc1[nH]c(=O)[nH]c(=O)c1/C=C/C(=O)NC(CO)CC(C)C (configuration not stated) | > 375
COc1ccc(CC2Cc3ccccc3CCN2)cc1OC (configuration not stated) | > 50
CN(C)CCn1c(=O)c2ccc(NCCNCCO)c3c(=O)c4ccccc4n(c1=O)c23 | 3.4
CN(CCC(=O)N1CC(CCl)c2ccc([N+](=O)[O-])cc21)CCC(=O)N1CC(CCl)c2ccc([N+](=O)[O-])cc21 (configuration not stated) | 26.1
O=C1CC(Br)c2c(Br)sc(Br)c21 (configuration not stated) | 26.4
[O-][n+]1nc(N2CCOCC2)nc2ccccc21 | > 100
COc1ccc(NC(=S)Nc2cc(C)ccn2)cc1 | > 100
N=C1C(=N)c2ccccc2-c2ccccc21.[Cl-].[Ru+2].c1cnc2c(c1)ccc1cccnc12.c1cnc2c(c1)ccc1cccnc12 | 88.8
NCc1ccc(-c2ccc(CN)s2)s1 | > 100
Cc1cccc(N/C(=C(/C(Cl)=C(Cl)Cl)[N+](=O)[O-])n2nnc3ccccc32)c1 | 32.9
CCC1CN2CCc3cc(OC)c(OC)cc3C2CC1CC1c2cc(OC)c(OC)cc2CCN1C(=O)C(N)Cc1ccccc1 (configuration not stated) | 1.29
CC(=O)OC1C=C(C=O)C(O)(C=O)C2(C)CCCC(C)(C)C12 (configuration not stated) | 3.92
C1C2CC3CC1CC(c1nn4c(C56CC7CC(CC(C7)C5)C6)nnc4s1)(C2)C3 | > 100
Cc1cn(C2OC(CO[Si](C)(C)C(C)(C)C)/C(=C\C#N)C2O[Si](C)(C)C(C)(C)C)c(=O)[nH]c1=O (configuration not stated) | > 100
COc1cc2c(/C=C3/C(=O)Nc4ccc(O)cc43)c(Cl)n(Cc3ccccc3)c2cc1C | 1.91
O=[N+]([O-])/C(C(Cl)=C(Cl)Cl)=C1\Nc2ccc([N+](=O)[O-])cc2N1 | > 100
CC(C)=CCc1c(O)cc(O)c2c1OC(c1ccc(O)cc1)C(O)C2=O (configuration not stated) | > 100
Cc1ccc(-c2c(C#N)c(-c3ccccc3)n(NS(=O)(=O)c3ccc(C)cc3)c(=O)c2C#N)cc1 | > 100
CC(C)CCCC(C)[C@H]1CC[C@H]2n3c(nnc3-c3ccccc3)CCC[C@]12C (some centres not stated) | 40.4
CCCCCCCCCCCCCCCCP(=O)(O)OCC(N)C(=O)O (configuration not stated) | 48.9
C1=C(CC2=C[P+](c3ccccc3)(c3ccccc3)C=C(c3ccccc3)O2)OC(c2ccccc2)=C[P+]1(c1ccccc1)c1ccccc1 | 1.25
OC1=C2c3ccccc3NC2Oc2cc(F)ccc21 (configuration not stated) | 28.7
NCC(Cl)C(O)c1cnc(N)[nH]1 (configuration not stated) | > 34.5

Test system: CAKI-1 renal
Assay: NCI-60 cell line screen, 48 h

Compound | TGI [µM]
CCOc1cccc(C=Nc2ccccc2SSc2ccccc2N=Cc2cccc(OCC)c2O)c1O | 29.3
Cc1c2c(cc3c1C(=O)C(=O)C([C@@H](C)CO)=C3O)C(C)(C)CCC2 | > 100
CC[C@@]1(O)C(=O)OCc2c1cc1n(c2=O)Cc2c-1nc1ccccc1c2/C=N\NC(=O)C[n+]1ccccc1 | 20
Cc1[nH]c(=O)[nH]c(=O)c1/C=C/C(=O)NC(CO)CC(C)C (configuration not stated) | 310
COc1ccc(CC2Cc3ccccc3CCN2)cc1OC (configuration not stated) | > 50
CN(C)CCn1c(=O)c2ccc(NCCNCCO)c3c(=O)c4ccccc4n(c1=O)c23 | 0.186
CN(CCC(=O)N1CC(CCl)c2ccc([N+](=O)[O-])cc21)CCC(=O)N1CC(CCl)c2ccc([N+](=O)[O-])cc21 (configuration not stated) | 48
O=C1CC(Br)c2c(Br)sc(Br)c21 (configuration not stated) | 38.8
[O-][n+]1nc(N2CCOCC2)nc2ccccc21 | > 100
COc1ccc(NC(=S)Nc2cc(C)ccn2)cc1 | > 100
NCc1ccc(-c2ccc(CN)s2)s1 | > 100
Cc1cccc(N/C(=C(/C(Cl)=C(Cl)Cl)[N+](=O)[O-])n2nnc3ccccc32)c1 | 31.4
CCC1CN2CCc3cc(OC)c(OC)cc3C2CC1CC1c2cc(OC)c(OC)cc2CCN1C(=O)C(N)Cc1ccccc1 (configuration not stated) | 11.2
CC(=O)OC1C=C(C=O)C(O)(C=O)C2(C)CCCC(C)(C)C12 (configuration not stated) | 3.15
C1C2CC3CC1CC(c1nn4c(C56CC7CC(CC(C7)C5)C6)nnc4s1)(C2)C3 | > 100
Cc1cn(C2OC(CO[Si](C)(C)C(C)(C)C)/C(=C\C#N)C2O[Si](C)(C)C(C)(C)C)c(=O)[nH]c1=O (configuration not stated) | > 100
COc1cc2c(/C=C3/C(=O)Nc4ccc(O)cc43)c(Cl)n(Cc3ccccc3)c2cc1C | 19.2
O=[N+]([O-])/C(C(Cl)=C(Cl)Cl)=C1\Nc2ccc([N+](=O)[O-])cc2N1 | > 100
Cc1ccc(-c2c(C#N)c(-c3ccccc3)n(NS(=O)(=O)c3ccc(C)cc3)c(=O)c2C#N)cc1 | > 100
CC(C)CCCC(C)[C@H]1CC[C@H]2n3c(nnc3-c3ccccc3)CCC[C@]12C (some centres not stated) | 29.7
CCCCCCCCCCCCCCCCP(=O)(O)OCC(N)C(=O)O (configuration not stated) | 56.2
C1=C(CC2=C[P+](c3ccccc3)(c3ccccc3)C=C(c3ccccc3)O2)OC(c2ccccc2)=C[P+]1(c1ccccc1)c1ccccc1 | 5.39
OC1=C2c3ccccc3NC2Oc2cc(F)ccc21 (configuration not stated) | 48.4
NCC(Cl)C(O)c1cnc(N)[nH]1 (configuration not stated) | 4.35

Test system: SK-OV-3 ovarian
Assay: NCI-60 cell line screen, 48 h

Compound | TGI [µM]
CCOc1cccc(C=Nc2ccccc2SSc2ccccc2N=Cc2cccc(OCC)c2O)c1O | 52
Cc1c2c(cc3c1C(=O)C(=O)C([C@@H](C)CO)=C3O)C(C)(C)CCC2 | > 100
CC[C@@]1(O)C(=O)OCc2c1cc1n(c2=O)Cc2c-1nc1ccccc1c2/C=N\NC(=O)C[n+]1ccccc1 | > 100
Cc1[nH]c(=O)[nH]c(=O)c1/C=C/C(=O)NC(CO)CC(C)C (configuration not stated) | > 375
COc1ccc(CC2Cc3ccccc3CCN2)cc1OC (configuration not stated) | > 50
CN(C)CCn1c(=O)c2ccc(NCCNCCO)c3c(=O)c4ccccc4n(c1=O)c23 | 16.2
CN(CCC(=O)N1CC(CCl)c2ccc([N+](=O)[O-])cc21)CCC(=O)N1CC(CCl)c2ccc([N+](=O)[O-])cc21 (configuration not stated) | > 100
O=C1CC(Br)c2c(Br)sc(Br)c21 (configuration not stated) | 55.9
[O-][n+]1nc(N2CCOCC2)nc2ccccc21 | > 100
N=C1C(=N)c2ccccc2-c2ccccc21.[Cl-].[Ru+2].c1cnc2c(c1)ccc1cccnc12.c1cnc2c(c1)ccc1cccnc12 | > 100
NCc1ccc(-c2ccc(CN)s2)s1 | > 100
Cc1cccc(N/C(=C(/C(Cl)=C(Cl)Cl)[N+](=O)[O-])n2nnc3ccccc32)c1 | 49.9
CCC1CN2CCc3cc(OC)c(OC)cc3C2CC1CC1c2cc(OC)c(OC)cc2CCN1C(=O)C(N)Cc1ccccc1 (configuration not stated) | 17.8
CC(=O)OC1C=C(C=O)C(O)(C=O)C2(C)CCCC(C)(C)C12 (configuration not stated) | 8.68
C1C2CC3CC1CC(c1nn4c(C56CC7CC(CC(C7)C5)C6)nnc4s1)(C2)C3 | > 100
Cc1cn(C2OC(CO[Si](C)(C)C(C)(C)C)/C(=C\C#N)C2O[Si](C)(C)C(C)(C)C)c(=O)[nH]c1=O (configuration not stated) | > 100
COc1cc2c(/C=C3/C(=O)Nc4ccc(O)cc43)c(Cl)n(Cc3ccccc3)c2cc1C | > 60.2
O=[N+]([O-])/C(C(Cl)=C(Cl)Cl)=C1\Nc2ccc([N+](=O)[O-])cc2N1 | > 100
CC(C)=CCc1c(O)cc(O)c2c1OC(c1ccc(O)cc1)C(O)C2=O (configuration not stated) | > 100
Cc1ccc(-c2c(C#N)c(-c3ccccc3)n(NS(=O)(=O)c3ccc(C)cc3)c(=O)c2C#N)cc1 | > 100
CC(C)CCCC(C)[C@H]1CC[C@H]2n3c(nnc3-c3ccccc3)CCC[C@]12C (some centres not stated) | 26.9
CCCCCCCCCCCCCCCCP(=O)(O)OCC(N)C(=O)O (configuration not stated) | > 100
C1=C(CC2=C[P+](c3ccccc3)(c3ccccc3)C=C(c3ccccc3)O2)OC(c2ccccc2)=C[P+]1(c1ccccc1)c1ccccc1 | 1.41
OC1=C2c3ccccc3NC2Oc2cc(F)ccc21 (configuration not stated) | 26.6
NCC(Cl)C(O)c1cnc(N)[nH]1 (configuration not stated) | > 44.6
